# According to patent US8435980B2 (AbbVie Inc., priority 2009, dated 2013):
# Target: T1, Cdc7 (BEV coexpressed huCDC7/DBF4) (Homo sapiens, UniProt O00311)
# T1 construct: made in house; host or cells: BEV (baculovirus expression vector) co-expression; insect cells are implied but no cell line is named
# Assay: Cdc7 enzyme inhibition assay ([33P]ATP, biotinylated peptide substrate, FlashPlate)
# Format: biochemical
# Settings: Table 3; enzyme inhibition data (Ki)
# Description: Cdc7 (BEV coexpressed huCDC7/DBF4) is prepared internally. Cdc7 assays are conducted as follows with final concentrations as listed. […] Reactions are quenched after 1 hr by the addition of 90 μL stop buffer (50 mM EDTA, 2M NaCl). […] (Ki) for exemplary compounds.
# T1 sequence (O00311 whole entry): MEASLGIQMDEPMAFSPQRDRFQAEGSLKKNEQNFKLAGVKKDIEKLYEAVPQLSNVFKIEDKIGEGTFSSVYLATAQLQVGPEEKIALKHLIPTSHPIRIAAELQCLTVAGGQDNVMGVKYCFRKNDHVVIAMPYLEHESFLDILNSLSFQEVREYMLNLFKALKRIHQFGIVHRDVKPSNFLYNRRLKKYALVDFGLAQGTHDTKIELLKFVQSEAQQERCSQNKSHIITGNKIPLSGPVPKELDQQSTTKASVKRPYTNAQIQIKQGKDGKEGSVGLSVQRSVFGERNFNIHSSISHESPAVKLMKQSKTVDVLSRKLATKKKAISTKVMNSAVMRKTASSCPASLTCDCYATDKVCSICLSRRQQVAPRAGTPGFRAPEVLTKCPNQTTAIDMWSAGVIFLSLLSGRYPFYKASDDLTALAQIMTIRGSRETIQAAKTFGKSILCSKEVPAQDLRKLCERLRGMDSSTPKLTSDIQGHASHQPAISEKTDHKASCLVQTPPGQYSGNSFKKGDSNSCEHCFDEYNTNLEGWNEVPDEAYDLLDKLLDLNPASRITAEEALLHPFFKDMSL
# T1 sequence (Q9UBU7 whole entry partner): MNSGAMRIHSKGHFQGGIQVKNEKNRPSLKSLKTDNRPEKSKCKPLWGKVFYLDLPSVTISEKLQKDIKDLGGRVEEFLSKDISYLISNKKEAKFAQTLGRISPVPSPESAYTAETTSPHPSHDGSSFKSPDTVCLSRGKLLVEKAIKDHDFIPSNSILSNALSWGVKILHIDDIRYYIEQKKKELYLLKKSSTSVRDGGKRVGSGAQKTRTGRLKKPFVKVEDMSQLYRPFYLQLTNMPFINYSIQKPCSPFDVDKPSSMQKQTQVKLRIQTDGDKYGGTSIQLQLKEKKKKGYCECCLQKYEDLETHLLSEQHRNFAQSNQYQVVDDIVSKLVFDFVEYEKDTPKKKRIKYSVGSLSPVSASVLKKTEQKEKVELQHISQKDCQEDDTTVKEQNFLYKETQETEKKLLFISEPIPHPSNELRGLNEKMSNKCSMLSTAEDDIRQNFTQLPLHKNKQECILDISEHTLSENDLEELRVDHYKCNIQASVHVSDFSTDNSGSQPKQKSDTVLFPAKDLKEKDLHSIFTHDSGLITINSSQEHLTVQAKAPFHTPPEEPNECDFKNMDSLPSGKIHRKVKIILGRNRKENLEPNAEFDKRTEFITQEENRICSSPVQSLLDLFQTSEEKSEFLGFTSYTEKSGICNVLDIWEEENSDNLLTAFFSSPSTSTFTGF
row,SMILES,Ki [nM]
1,"CN(C)CC(=O)N[C@H]1CC[C@H](Nc2cc(-c3c[nH]c4ncccc34)cc(Cl)n2)CC1 [Example 114, N-(trans-4-{[6-chloro-4-(1H-pyrrolo[2,3-b]pyridin-3-yl)pyridin-2-yl]amino}cyclohexyl)-N^2,N^2-dimethylglycinamide]",< 10
2,"O=C1C[C@@H](C(=O)N[C@H]2CC[C@H](Nc3cc(-c4c[nH]c5ncccc45)cc(Cl)n3)CC2)N1 [Example 115, (2S)—N-(trans-4-{[6-chloro-4-(1H-pyrrolo[2,3-b]pyridin-3-yl)pyridin-2-yl]-amino}cyclohexyl)-4-oxo azetidine-2-carboxamide]",< 10
3,"CN[C@@H](C)C(=O)N[C@H]1CC[C@H](Nc2cc(-c3c[nH]c4ncccc34)cc(Cl)n2)CC1 [Example 116, N-(trans-4-{[6-chloro-4-(1H-pyrrolo[2,3-b]pyridin-3-yl)pyridin-2-yl]amino}cyclohexyl)-N^2-methyl-L-alaninamide]",< 10
4,"O=C(C1CCN1)N1CCC(Nc2cc(-c3c[nH]c4ncccc34)cc(Cl)n2)CC1 (stereo not shown) [Example 117, Azetidin-2-yl(4-{[6-chloro-4-(1H-pyrrolo[2,3-b]pyridin-3-yl)pyridin-2-yl]amino}piperidin-1-yl)methanone]",< 10
5,"CN(C)CC(=O)NC1CCCC(Nc2cc(-c3c[nH]c4ncccc34)cc(Cl)n2)C1 (stereo not shown) [Example 118, N-(3-{[6-chloro-4-(1H-pyrrolo[2,3-b]pyridin-3-yl)pyridin-2-yl]amino}cyclohexyl)-N^2,N^2-dimethylglycinamide]",< 10
6,"CN1CCC[C@H]1C(=O)NC1CCCC(Nc2cc(-c3c[nH]c4ncccc34)cc(Cl)n2)C1 (stereo partly drawn) [Example 119, N-(3-{[6-chloro-4-(1H-pyrrolo[2,3-b]pyridin-3-yl)pyridin-2-yl]amino}cyclohexyl)-1-methyl-L-prolinamide]",< 10
7,"CN(C)CC(C)(C)CNc1cc(-c2c[nH]c3ncccc23)cc(Cl)n1 [Example 121, N′-[6-chloro-4-(1H-pyrrolo[2,3-b]pyridin-3-yl)pyridin-2-yl]-N,N,2,2-tetramethylpropane-1,3-diamine]",< 10
8,"CS(=O)(=O)Nc1cc(-c2c[nH]c3ncccc23)cc(Cl)n1 [Example 122, N-[6-chloro-4-(1H-pyrrolo[2,3-b]pyridin-3-yl)pyridin-2-yl]methanesulfonamide]",< 10
9,"O=S(=O)(Nc1cc(-c2c[nH]c3ncccc23)cc(Cl)n1)c1ccccc1 [Example 123, N-[6-chloro-4-(1H-pyrrolo[2,3-b]pyridin-3-yl)pyridin-2-yl]benzenesulfonamide]",< 10
10,"CC(C)(CNC(=O)C1CC1)CNc1cc(-c2c[nH]c3ncccc23)cc(Cl)n1 [Example 124, N-(3-{[6-chloro-4-(1H-pyrrolo[2,3-b]pyridin-3-yl)pyridin-2-yl]amino}-2,2-dimethylpropyl)cyclopropanecarboxamide]",< 10
11,"O=C(C1CC1)N1CCC(Nc2cc(-c3c[nH]c4ncccc34)cc(Cl)n2)CC1 [Example 126, (4-{[6-chloro-4-(1H-pyrrolo[2,3-b]pyridin-3-yl)pyridin-2-yl]amino}piperidin-1-yl)(cyclopropyl)methanone]",< 10
12,"C[C@@H](C(=O)N[C@H]1CC[C@H](Nc2cc(-c3c[nH]c4ncccc34)cc(Cl)n2)CC1)N(C)C [Example 127, N-(trans-4-{[6-chloro-4-(1H-pyrrolo[2,3-b]pyridin-3-yl)pyridin-2-yl]amino}cyclohexyl)-N^2,N^2-dimethyl-L-alaninamide]",< 10
13,"Clc1cc(-c2c[nH]c3ncccc23)cc(NC2CCN(C3CCC3)CC2)n1 [Example 128, 6-chloro-N-(1-cyclobutylpiperidin-4-yl)-4-(1H-pyrrolo[2,3-b]pyridin-3-yl)pyridin-2-amine]",< 10
14,"O=C(NC1CCCC(Nc2cc(-c3c[nH]c4ncccc34)cc(Cl)n2)C1)C1CCCCN1 (stereo not shown) [Example 129, N-(3-{[6-chloro-4-(1H-pyrrolo[2,3-b]pyridin-3-yl)pyridin-2-yl]amino}cyclohexyl)piperidine-2-carboxamide]",< 10
15,"O=C(CN1CCCC1)NC1CCCC(Nc2cc(-c3c[nH]c4ncccc34)cc(Cl)n2)C1 (stereo not shown) [Example 130, N-(3-{[6-chloro-4-(1H-pyrrolo[2,3-b]pyridin-3-yl)pyridin-2-yl]amino}cyclohexyl)-2-(pyrrolidin-1-yl)acetamide]",< 10
16,"O=C(N[C@H]1CC[C@H](Nc2cc(-c3c[nH]c4ncccc34)cc(Cl)n2)CC1)C1CCC1 [Example 133, N-(trans-4-{[6-chloro-4-(1H-pyrrolo[2,3-b]pyridin-3-yl)pyridin-2-yl]amino}cyclohexyl)cyclobutanecarboxamide]",< 10
17,"NC1(C(=O)NC2CCCC(Nc3cc(-c4c[nH]c5ncccc45)cc(Cl)n3)C2)CCC1 (stereo not shown) [Example 135, 1-amino-N-(3-{[6-chloro-4-(1H-pyrrolo[2,3-b]pyridin-3-yl)pyridin-2-yl]amino}cyclohexyl)cyclobutanecarboxamide]",< 10

row,SMILES,Ki [nM]
1,"O=C(CNC1CCCC1)N[C@H]1CC[C@H](Nc2cc(-c3c[nH]c4ncccc34)cc(Cl)n2)CC1 [Example 137, N-(trans-4-{[6-chloro-4-(1H-pyrrolo[2,3-b]pyridin-3-yl)pyridin-2-yl]amino}cyclohexyl)-N^2-cyclopentylglycinamide]",< 10
2,"CS(=O)(=O)N1CCCC(Nc2cc(-c3c[nH]c4ncccc34)cc(Cl)n2)C1 (stereo not shown) [Example 138, 6-chloro-N-[1-(methylsulfonyl)piperidin-3-yl]-4-(1H-pyrrolo[2,3-b]pyridin-3-yl)pyridin-2-amine]",< 10
3,"O=C1CC[C@@H](C(=O)NC2CCCC(Nc3cc(-c4c[nH]c5ncccc45)cc(Cl)n3)C2)N1 (stereo partly shown) [Example 139, N-(3-{[6-chloro-4-(1H-pyrrolo[2,3-b]pyridin-3-yl)pyridin-2-yl]amino}cyclohexyl)-5-oxoprolinamide]",< 10
4,"O=C(CN1CCOCC1)N[C@H]1CC[C@H](Nc2cc(-c3c[nH]c4ncccc34)cc(Cl)n2)CC1 [Example 141, N-(trans-4-{[6-chloro-4-(1H-pyrrolo[2,3-b]pyridin-3-yl)pyridin-2-yl]amino}cyclohexyl)-2-(morpholin-4-yl)acetamide]",< 10
5,"O=C(CN1CCN(c2ccccn2)CC1)N[C@H]1CC[C@H](Nc2cc(-c3c[nH]c4ncccc34)cc(Cl)n2)CC1 [Example 142, N-(trans-4-{[6-chloro-4-(1H-pyrrolo[2,3-b]pyridin-3-yl)pyridin-2-yl]amino}cyclohexyl)-2-[4-(pyridin-2-yl)piperazin-1-yl]acetamide]",< 10
6,"NC1CCC(CC2CCC(Nc3cc(-c4c[nH]c5ncccc45)cc(Cl)n3)CC2)CC1 (stereo not shown) [Example 143, N-{4-[(4-aminocyclohexyl)methyl]cyclohexyl}-6-chloro-4-(1H-pyrrolo[2,3-b]pyridin-3-yl)pyridin-2-amine]",< 10
7,"O=C1CC(C(=O)N[C@H]2CC[C@H](Nc3cc(-c4c[nH]c5ncccc45)cc(Cl)n3)CC2)CC(=O)N1 [Example 144, N-(trans-4-{[6-chloro-4-(1H-pyrrolo[2,3-b]pyridin-3-yl)pyridin-2-yl]amino}cyclohexyl)-2,6-dioxopiperidine-4-carboxamide]",< 10
8,"NCCS(=O)(=O)NC1CCCC(Nc2cc(-c3c[nH]c4ncccc34)cc(Cl)n2)C1 (stereo not shown) [Example 145, 2-amino-N-(3-{[6-chloro-4-(1H-pyrrolo[2,3-b]pyridin-3-yl)pyridin-2-yl]amino}cyclohexyl)ethanesulfonamide]",< 10
9,"CN1CCCC(CNc2cc(-c3c[nH]c4ncccc34)cc(Cl)n2)C1 (stereo not shown) [Example 146, 6-chloro-N-[(1-methylpiperidin-3-yl)methyl]-4-(1H-pyrrolo[2,3-b]pyridin-3-yl)pyridin-2-amine]",< 10
10,"CC(=O)N1CCCC(Nc2cc(-c3c[nH]c4ncccc34)cc(Cl)n2)C1 (stereo not shown) [Example 147, 1-(3-{[6-chloro-4-(1H-pyrrolo[2,3-b]pyridin-3-yl)pyridin-2-yl]amino}piperidin-1-yl)ethanone]",< 10
11,"CN1CCC(N[C@H]2CC[C@H](Nc3cc(-c4c[nH]c5ncccc45)cc(Cl)n3)CC2)CC1 [Example 148, trans-N-[6-chloro-4-(1H-pyrrolo[2,3-b]pyridin-3-yl)pyridin-2-yl]-N′-(1-methylpiperidin-4-yl)cyclohexane-1,4-diamine]",< 10
12,"COc1cnc2[nH]cc(-c3cc(Cl)nc(N[C@H]4CC[C@H](O)CC4)c3)c2c1 [Example 149, trans-4-{[6-chloro-4-(5-methoxy-1H-pyrrolo[2,3-b]pyridin-3-yl)pyridin-2-yl]amino}cyclohexanol]",< 10
13,"O=C(CN1CCOCC1)Nc1cc(-c2c[nH]c3ncccc23)cc(Cl)n1 [Example 150, N-[6-chloro-4-(1H-pyrrolo[2,3-b]pyridin-3-yl)pyridin-2-yl]-2-(morpholin-4-yl)acetamide]",< 10
14,"O=C(CN[C@H]1CC[C@H](O)CC1)N[C@H]1CC[C@H](Nc2cc(-c3c[nH]c4ncccc34)cc(Cl)n2)CC1 [Example 152, N-(trans-4-{[6-chloro-4-(1H-pyrrolo[2,3-b]pyridin-3-yl)pyridin-2-yl]amino}cyclohexyl)-N^2-(trans-4-hydroxycyclohexyl)glycinamide]",< 10
15,"O=C(CNCCN1CCOCC1)N[C@H]1CC[C@H](Nc2cc(-c3c[nH]c4ncccc34)cc(Cl)n2)CC1 [Example 153, N-(trans-4-{[6-chloro-4-(1H-pyrrolo[2,3-b]pyridin-3-yl)pyridin-2-yl]amino}cyclohexyl)-N^2-[2-(morpholin-4-yl)ethyl]glycinamide]",< 10
16,"CN(C)C1CCC(CC2CCC(Nc3cc(-c4c[nH]c5ncccc45)cc(Cl)n3)CC2)CC1 (stereo not shown) [Example 155, 6-chloro-N-(4-{[4-(dimethylamino)cyclohexyl]methyl}cyclohexyl)-4-(1H-pyrrolo[2,3-b]pyridin-3-yl)pyridin-2-amine]",< 10
17,Clc1cc(-c2c[nH]c3ncccc23)cc(NC2CCC(CC3CCC(NC4CCCCC4)CC3)CC2)n1 (stereo not shown) [Example 156],< 10
